Measurements taken from patent publication US20110160055A1, “Imidazole and Triazole Compounds as Fungicides” (BASF SE, priority 2008, published 2011).

How the values were obtained:
Phakopsora pachyrhizi [1] = assay: Example G1: curative activity against soybean rust, greenhouse, sprayed two days after the 24 h incubation; type: in vivo; settings: potted soybean seedlings, 150 ppm aqueous preparation sprayed two days after incubation, rated after a further 10 days; untreated plants 90% infected
Experimental: (§1) Subsequently, it was made up to 100 ml with water. This stock solution was diluted with the solvent/emulsifier/water mixture described to the active compound concentration indicated below. Alternatively to this, the active compounds were used as a commercially available ready-to-use solution and diluted with water to the active compound concentration indicated. Curative activity against soybean rust caused by Phakopsora pachyrhizi Leaves of potted soybean seedlings were inoculated with a spore suspension of soybean rust (Phakpsora pachyrhizi). […] During this time, the spores germinated and the germ tubes penetrated into the leaf tissue. Infected plants were then cultivated further in a greenhouse at temperatures between 23 and 27° C. and 60 to 80% relative atmospheric humidity. After two days, the plants were sprayed to run off point with the active compound solution described above at the active compound concentration stated below. After the spray coating had dried on, the test plants were cultivated in a greenhouse at temperatures between 23 and 27° C. and 60 to 80% relative atmospheric humidity for a further 10 days. The extent of the rust fungus development on the leaves was then determined visually in % infection.

Phakopsora pachyrhizi [2] = assay: Example G2: curative activity against soybean rust, greenhouse, sprayed directly after the 24 h incubation; type: in vivo; settings: potted soybean seedlings, 150 ppm aqueous preparation sprayed after 24 h incubation, rated after a further 14 days; untreated plants 90% infected
Experimental: as §1, with “then” for “then cultivated further in a greenhouse at temperatures between 23 and 27° C. and 60 to 80% relative atmospheric humidity. After two days, the plants were”, “further 14” for “further 10”

SMILES	infection (extent of rust fungus development on the leaves, visual) (Phakopsora pachyrhizi [1]) [%]	infection (extent of rust fungus development on the leaves, visual) (Phakopsora pachyrhizi [2]) [%]
CC(COc1ccccc1Cl)=C(C)CC(C(O)C(C)(C)C)n1cncn1 (centres unmarked) [I.A6b]	0	–
CC(COc1cccc(Cl)c1Cl)=C(C)CC(C(O)C(C)(C)C)n1cncn1 (centres unmarked) [I.A14a]	–	0
